Experimental data from article PMC2757182 (The Journal of Biological Chemistry, 2009).
Substitutions are numbered along the chain they refer to.

Assays:
Assay in all cases: tryptophan fluorescence quenching
Type in all cases: binding
[1] = target: T1, GUN4 Δ1–69 (GENOMES UNCOUPLED 4) (Arabidopsis thaliana, UniProt Q9LX31)
T1 sequence (Q9LX31 70-265): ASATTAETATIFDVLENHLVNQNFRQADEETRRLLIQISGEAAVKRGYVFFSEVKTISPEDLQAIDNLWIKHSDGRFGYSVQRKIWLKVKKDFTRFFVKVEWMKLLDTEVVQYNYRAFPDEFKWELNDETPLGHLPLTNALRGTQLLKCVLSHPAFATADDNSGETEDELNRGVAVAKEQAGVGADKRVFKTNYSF

[2] = target: T2, GUN4 Δ1–69 (GENOMES UNCOUPLED 4) (Arabidopsis thaliana, UniProt Q9LX31, R211A)
T2 sequence (Q9LX31 70-265 R211A): T1 sequence (Q9LX31 70-265) with R142A

[3] = target: T3, GUN4 Δ1–69 (GENOMES UNCOUPLED 4) (Arabidopsis thaliana, UniProt Q9LX31, V123A)
T3 sequence (Q9LX31 70-265 V123A): T1 sequence (Q9LX31 70-265) with V54A

[4] = target: T4, GUN4 Δ1–69 (GENOMES UNCOUPLED 4) (Arabidopsis thaliana, UniProt Q9LX31, F191A)
T4 sequence (Q9LX31 70-265 F191A): T1 sequence (Q9LX31 70-265) with F122A

Kd [1] | Kd [2] | Kd [3] | Kd [4] | SMILES
15 ± 0.82 µM | – | – | – | CC1=C(CCC(=O)O)c2cc3nc(cc4[nH]c(cc5[nH]c(cc1n2)c(C)c5CCC(=O)O)c(CCC(=O)O)c4C)C(CCC(=O)O)=C3C [Coproporphyrin III]
6.4 ± 0.21 µM | 14 ± 0.83 µM | 9.6 ± 0.44 µM | 12 ± 0.77 µM | CC1=C(CCC(=O)O)c2cc3nc(cc4[nH]c(cc4C)cc4[nH]c(cc1n2)cc4C)C(C)=C3CCC(=O)O [DPIX]
10 ± 0.57 µM | – | – | – | O=C(O)CCC1=C(CC(=O)O)c2cc3[nH]c(cc4nc(cc5[nH]c(cc1n2)c(CC(=O)O)c5CCC(=O)O)C(CCC(=O)O)=C4CC(=O)O)c(CC(=O)O)c3CCC(=O)O [Uroporphyrin III]

The next lines start with the compound.

SMILES | Kd [1] | Kd [2] | Kd [3] | Kd [4]
C=CC1=C(C)C2=Cc3c(C=C)c(C)c4[n]3[Fe]([Cl])[n]3c(c(C)c(CCC(=O)O)c3=CC3=NC(=C4)C(C)=C3CCC(=O)O)=CC1=N2 [Hemin] | 8.1 ± 0.75 µM | – | – | –
C=CC1=C(C)c2cc3[nH]c(cc4nc(cc5[nH]c(cc1n2)c(C)c5CCC(=O)O)C(CCC(=O)O)=C4C)c(C)c3C=C [PPIX] | 11 ± 0.5 µM | – | – | –
C=Cc1c(C)c2cc3nc(c4c5[nH]c(cc6nc(cc1[nH]2)C(C)=C6CC)c(C)c5C(=O)[C@@H]4C(=O)OC)[C@@H](CCC(=O)O)[C@@H]3C [Pheophorbide a] | 3.8 ± 0.33 µM | – | – | –
